In patent publication US6355799B1, “Substituted benzene compounds, process for their preparation, and herbicidal and defoliant compositions containing them” (ISK Americas Incorporated, priority 1997, dated 2002):

Tests used:
Assay type in all cases: in vivo
[1] = system: field corn (Zea mays L., var. Dekalb 535, CORN); assay: Post-emerge test, crop safety; details: 14 days after application; for Post-emerge Herbicidal Activity CORN (crop damage rating): rating scale 0-100; for Post-emerge phytotoxicity rating CORN (crop damage): rating scale 0-100 (0 no damage, 100 complete death)
Summary of the method: (§1)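 Compounds in acetone were track-sprayed at 15-1000 g ai/ha (187 l/ha) on sandy loam pots: pre-emerge one day after seeding, post-emerge at 2-3 leaf stage with 0.25% v/v non-ionic surfactant. Phytotoxicity was rated 14 days later on a 0 (no damage) to 100 (complete death) scale.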

[2] = system: upland rice (Oryza sp., var. Tebonnet, RICE); assay: Post-emerge test, crop safety; details: 14 days after application; for Post-emerge Herbicidal Activity RICE (crop damage rating): rating scale 0-100; for Post-emerge phytotoxicity rating RICE (crop damage): rating scale 0-100 (0 no damage, 100 complete death)
Summary of the method: as §1

[3] = system: redroot pigweed (Amaranthus retroflexus, AMARE); assay: Pre-emerge test, greenhouse herbicide activity screening; details: rating scale 0-100, 14 days after application
Summary of the method: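 Sandy loam pots; pre-emerge: sown 1 d pre-spray, surface-watered after, then bottom-watered. Post-emerge: sown 8–21 d before, 2–3 leaf stage, + 0.25% v/v NIS, bottom-watered. Acetone, 187 l/ha track spray, 15–1000 g ai/ha. 0–100 injury score, day 14.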

[4] = system: barnyardgrass (Echinochloa crus-galli, ECHCG); assay: as above; details: rating scale 0-100, 14 days after application
Summary of the method: as §1

[5] = system: ivyleaf morningglory (Ipomoea hederacea, IPOHE); assay: as above; details: rating scale 0-100, 14 days after application
Summary of the method: as §1

[6] = system: lambsquarters (Chenopodium album, CHEAL); assay: as above; details: rating scale 0-100, 14 days after application
Summary of the method: as §1

[7] = system: large crabgrass (Digitaria sanguinalis, DIGSA); assay: as above; details: rating scale 0-100, 14 days after application
Summary of the method: as §1

[8] = system: sicklepod (Cassia obtusifolia, CASOB); assay: as above; details: rating scale 0-100, 14 days after application
Summary of the method: as §1

[9] = system: green foxtail (Setaria viridis, SETVI); assay: as above; details: rating scale 0-100, 14 days after application
Summary of the method: as §1

[10] = system: velvetleaf (Abutilon theophrasti, ABUTH); assay: as above; details: rating scale 0-100, 14 days after application
Summary of the method: as §1

[11] = system: johnsongrass (Sorghum halepense, SORHA); assay: as above; details: rating scale 0-100, 14 days after application
Summary of the method: as §1

[12] = system: barnyardgrass (Echinochloa crus-galli, ECHCG); assay: Post-emerge test, greenhouse herbicide activity screening; details: 14 days after application; for Post-emerge Herbicidal Activity ECHCG (phytotoxicity rating): rating scale 0-100; for Post-emerge Herbicidal Activity, phytotoxicity rating ECHCG: rating scale 0-100 (0 no damage, 100 complete death)
Summary of the method: (§2)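 Applied at 15–1000 g ai/ha from acetone in 187 l/ha spray volume. Post-emergence applications included 0.25% v/v non-ionic surfactant and reached plants sown 8–21 days before. Pre-emergence applications were incorporated by surface watering. Efficacy or crop damage was rated on a 0–100 scale after 14 days.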

[13] = system: common ragweed (Ambrosia artemisizfolia L., AMBEL); assay: as above; details: post-emerge, 14 days after application, rating scale 0-100
Summary of the method: as §2

[14] = system: ivyleaf morningglory (Ipomoea hederacea, IPOHE); assay: as above; details: 14 days after application; for Post-emerge Herbicidal Activity IPOHE (phytotoxicity rating): rating scale 0-100; for Post-emerge Herbicidal Activity, phytotoxicity rating IPOHE: rating scale 0-100 (0 no damage, 100 complete death)
Summary of the method: as §2

[15] = system: lambsquarters (Chenopodium album, CHEAL); assay: as above; details: 14 days after application; for Post-emerge Herbicidal Activity CHEAL (phytotoxicity rating): rating scale 0-100; for Post-emerge Herbicidal Activity, phytotoxicity rating CHEAL: rating scale 0-100 (0 no damage, 100 complete death)
Summary of the method: as §2

[16] = system: large crabgrass (Digitaria sanguinalis, DIGSA); assay: as above; details: 14 days after application; for Post-emerge Herbicidal Activity DIGSA (phytotoxicity rating): rating scale 0-100; for Post-emerge Herbicidal Activity, phytotoxicity rating DIGSA: rating scale 0-100 (0 no damage, 100 complete death)
Summary of the method: as §2

[17] = system: sicklepod (Cassia obtusifolia, CASOB); assay: as above; details: 14 days after application; for Post-emerge Herbicidal Activity CASOB (phytotoxicity rating): rating scale 0-100; for Post-emerge Herbicidal Activity, phytotoxicity rating CASOB: rating scale 0-100 (0 no damage, 100 complete death)
Summary of the method: as §2

[18] = system: redroot pigweed (Amaranthus retroflexus, AMARE); assay: as above; details: 14 days after application
Summary of the method: as §2

[19] = system: green foxtail (Setaria viridis, SETVI); assay: as above; details: 14 days after application; for Post-emerge Herbicidal Activity SETVI (phytotoxicity rating): rating scale 0-100; for Post-emerge Herbicidal Activity, phytotoxicity rating SETVI: rating scale 0-100 (0 no damage, 100 complete death)
Summary of the method: as §2

[20] = system: velvetleaf (Abutilon theophrasti, ABUTH); assay: as above; details: 14 days after application; for Post-emerge Herbicidal Activity ABUTH (phytotoxicity rating): rating scale 0-100; for Post-emerge Herbicidal Activity, phytotoxicity rating ABUTH: rating scale 0-100 (0 no damage, 100 complete death)
Summary of the method: as §2

[21] = system: johnsongrass (Sorghum halepense, SORHA); assay: as above; details: rating scale 0-100 (0 no damage, 100 complete death), 14 days after application
Summary of the method: as §2

[22] = system: field corn (Zea mays L., var. Dekalb 535, CORN); assay: Pre-emerge test, crop safety; details: rating scale 0-100, 14 days after application
Summary of the method: (§3)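 Rating: 0–100 visual injury, 14 DAA. Application: acetone, 187 l/ha, 15–1000 g ai/ha, flat-fan track sprayer with nozzle 40–45 cm above soil or canopy. Post-emerge runs used 0.25% v/v surfactant on 2–3 leaf plants.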

[23] = system: upland rice (Oryza sp., var. Tebonnet, RICE); assay: Pre-emerge test, crop safety; details: rating scale 0-100, 14 days after application
Summary of the method: as §3

C#CCOC(=O)C(C)(Cl)Cc1c(OC)c(Cl)cc(F)c1-n1c(=O)cc(C(F)(F)F)n(C)c1=O (stereo not drawn) [14-44]
Post-emerge Herbicidal Activity CORN (crop damage rating) ([1]; 63 g ai/ha): 99 | Post-emerge Herbicidal Activity CORN (crop damage rating) ([1]; 250 g ai/ha): 100 | Post-emerge phytotoxicity rating CORN (crop damage) ([1]; Rate 63 g ai/ha): 100 | Post-emerge phytotoxicity rating CORN (crop damage) ([1]; Rate 250 g ai/ha): 100 | Post-emerge Herbicidal Activity RICE (crop damage rating) ([2]; 63 g ai/ha): 5 | Post-emerge Herbicidal Activity RICE (crop damage rating) ([2]; 250 g ai/ha): 0 | Post-emerge phytotoxicity rating RICE (crop damage) ([2]; Rate 63 g ai/ha): 90 | Post-emerge phytotoxicity rating RICE (crop damage) ([2]; Rate 250 g ai/ha): 100 | Pre-emerge herbicidal activity, phytotoxicity rating AMARE ([3]; 63 g ai/ha): 70 | Pre-emerge herbicidal activity, phytotoxicity rating AMARE ([3]; 250 g ai/ha): 100 | Pre-emerge herbicidal activity, phytotoxicity rating ECHCG ([4]; 63 g ai/ha): 0 | Pre-emerge herbicidal activity, phytotoxicity rating ECHCG ([4]; 250 g ai/ha): 50 | Pre-emerge herbicidal activity, phytotoxicity rating IPOHE ([5]; 63 g ai/ha): 0 | Pre-emerge herbicidal activity, phytotoxicity rating IPOHE ([5]; 250 g ai/ha): 0 | Pre-emerge herbicidal activity, phytotoxicity rating CHEAL ([6]; 63 g ai/ha): 70 | Pre-emerge herbicidal activity, phytotoxicity rating CHEAL ([6]; 250 g ai/ha): 100 | Pre-emerge herbicidal activity, phytotoxicity rating DIGSA ([7]; 63 g ai/ha): 0 | Pre-emerge herbicidal activity, phytotoxicity rating DIGSA ([7]; 250 g ai/ha): 90 | Pre-emerge herbicidal activity, phytotoxicity rating CASOB ([8]; 63 g ai/ha): 0 | Pre-emerge herbicidal activity, phytotoxicity rating CASOB ([8]; 250 g ai/ha): 0 | Pre-emerge herbicidal activity, phytotoxicity rating SETVI ([9]; 63 g ai/ha): 0 | Pre-emerge herbicidal activity, phytotoxicity rating SETVI ([9]; 250 g ai/ha): 70 | Pre-emerge herbicidal activity, phytotoxicity rating ABUTH ([10]; 63 g ai/ha): 80 | Pre-emerge herbicidal activity, phytotoxicity rating ABUTH ([10]; 250 g ai/ha): 100 | Pre-emerge herbicidal activity, phytotoxicity rating SORHA ([11]; 63 g ai/ha): 0 | Pre-emerge herbicidal activity, phytotoxicity rating SORHA ([11]; 250 g ai/ha): 0 | Post-emerge Herbicidal Activity ECHCG (phytotoxicity rating) ([12]; 63 g ai/ha): 100 | Post-emerge Herbicidal Activity ECHCG (phytotoxicity rating) ([12]; 250 g ai/ha): 100 | Post-emerge Herbicidal Activity, phytotoxicity rating ECHCG ([12]; Rate 63 g ai/ha): 100 | Post-emerge Herbicidal Activity, phytotoxicity rating ECHCG ([12]; Rate 250 g ai/ha): 100 | Post-emerge Herbicidal Activity AMBEL (phytotoxicity rating) ([13]; 63 g ai/ha): 30 | Post-emerge Herbicidal Activity AMBEL (phytotoxicity rating) ([13]; 250 g ai/ha): 40 | Post-emerge Herbicidal Activity IPOHE (phytotoxicity rating) ([14]; 63 g ai/ha): 30 | Post-emerge Herbicidal Activity IPOHE (phytotoxicity rating) ([14]; 250 g ai/ha): 80 | Post-emerge Herbicidal Activity, phytotoxicity rating IPOHE ([14]; Rate 63 g ai/ha): 50 | Post-emerge Herbicidal Activity, phytotoxicity rating IPOHE ([14]; Rate 250 g ai/ha): 90 | Post-emerge Herbicidal Activity CHEAL (phytotoxicity rating) ([15]; 63 g ai/ha): 70 | Post-emerge Herbicidal Activity CHEAL (phytotoxicity rating) ([15]; 250 g ai/ha): 99 | Post-emerge Herbicidal Activity, phytotoxicity rating CHEAL ([15]; Rate 63 g ai/ha): 100 | Post-emerge Herbicidal Activity, phytotoxicity rating CHEAL ([15]; Rate 250 g ai/ha): 100 | Post-emerge Herbicidal Activity DIGSA (phytotoxicity rating) ([16]; 63 g ai/ha): 40 | Post-emerge Herbicidal Activity DIGSA (phytotoxicity rating) ([16]; 250 g ai/ha): 99 | Post-emerge Herbicidal Activity, phytotoxicity rating DIGSA ([16]; Rate 63 g ai/ha): 100 | Post-emerge Herbicidal Activity, phytotoxicity rating DIGSA ([16]; Rate 250 g ai/ha): 100 | Post-emerge Herbicidal Activity CASOB (phytotoxicity rating) ([17]; 63 g ai/ha): 10 | Post-emerge Herbicidal Activity CASOB (phytotoxicity rating) ([17]; 250 g ai/ha): 20 | Post-emerge Herbicidal Activity, phytotoxicity rating CASOB ([17]; Rate 63 g ai/ha): 0 | Post-emerge Herbicidal Activity, phytotoxicity rating CASOB ([17]; Rate 250 g ai/ha): 0 | Post-emerge Herbicidal Activity AMARE (phytotoxicity rating) ([18]; 63 g ai/ha, rating scale 0-100 (0 no damage, 100 complete death)): 100 | Post-emerge Herbicidal Activity AMARE (phytotoxicity rating) ([18]; 250 g ai/ha, rating scale 0-100): 100 | Post-emerge Herbicidal Activity, phytotoxicity rating AMARE ([18]; Rate 63 g ai/ha, rating scale 0-100 (0 no damage, 100 complete death)): 100 | Post-emerge Herbicidal Activity, phytotoxicity rating AMARE ([18]; Rate 250 g ai/ha, rating scale 0-100 (0 no damage, 100 complete death)): 100 | Post-emerge Herbicidal Activity SETVI (phytotoxicity rating) ([19]; 63 g ai/ha): 30 | Post-emerge Herbicidal Activity SETVI (phytotoxicity rating) ([19]; 250 g ai/ha): 70 | Post-emerge Herbicidal Activity, phytotoxicity rating SETVI ([19]; Rate 63 g ai/ha): 100 | Post-emerge Herbicidal Activity, phytotoxicity rating SETVI ([19]; Rate 250 g ai/ha): 100 | Post-emerge Herbicidal Activity ABUTH (phytotoxicity rating) ([20]; 63 g ai/ha): 100 | Post-emerge Herbicidal Activity ABUTH (phytotoxicity rating) ([20]; 250 g ai/ha): 100 | Post-emerge Herbicidal Activity, phytotoxicity rating ABUTH ([20]; Rate 63 g ai/ha): 100 | Post-emerge Herbicidal Activity, phytotoxicity rating ABUTH ([20]; Rate 250 g ai/ha): 100 | Post-emerge Herbicidal Activity, phytotoxicity rating SORHA ([21]; Rate 63 g ai/ha): 30 | Post-emerge Herbicidal Activity, phytotoxicity rating SORHA ([21]; Rate 250 g ai/ha): 80 | Pre-emerge phytotoxicity rating, crop damage CORN ([22]; 63 g ai/ha): 0 | Pre-emerge phytotoxicity rating, crop damage CORN ([22]; 250 g ai/ha): 0 | Pre-emerge phytotoxicity rating, crop damage RICE ([23]; 63 g ai/ha): 0 | Pre-emerge phytotoxicity rating, crop damage RICE ([23]; 250 g ai/ha): 50
